Assay results published in patent US9113629B2, “4-amino-6-(4-substituted-phenyl)-picolinates and 6-amino-2-(4-substituted-phenyl)-pyrimidine-4-carboxylates and their use as herbicides” (DOW AGROSCIENCES LLC, priority 2013, dated 2015).

These molecules were tested on Key Broadleaf Weed and Crop Species (assay: Post-emergent Test II herbicidal activity (Table 5)). Conditions: post-emergence, 336 h; ABUTH: velvetleaf (Abutilon theophrasti); 70 g ai/ha; post-emergent; 14 days after application; read-out: Visual Growth Reduction (%) 14 Days After Application ABUTH.
Type: in vivo
Summary of the method: (§1)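 Spray rates: a highest rate plus ½×, ¼×, ⅛×, 1/16×, all delivered at 187 L/ha to plants at the first–second true leaf stage. Readout is a visual percent injury score at 14 d, where 100 means complete kill.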
Work on `COc1c(N)nc(-c2ccc(I)c(F)c2)nc1C(=O)O` [Compound 37, 6-Amino-2-(3-fluoro-4-iodophenyl)-5-methoxypyrimidine-4-carboxylic acid] yielded a pest or weed control at 70 g/ha of 45 to 59%.

Same assay, conditions: post-emergence, 336 h; ABUTH: velvetleaf (Abutilon theophrasti); 140 g ai/ha; post-emergent; 14 days after application; read-out: Visual Growth Reduction (%) 14 Days After Application ABUTH
Molecule `COc1c(N)nc(-c2ccc(I)c(F)c2)nc1C(=O)O` [Compound 37, 6-Amino-2-(3-fluoro-4-iodophenyl)-5-methoxypyrimidine-4-carboxylic acid] has a pest or weed control at 140 g/ha of 60 to 74%.

Same assay, conditions: post-emergence, 336 h; AMARE: redroot pigweed (Amaranthus retroflexus); 70 g ai/ha; post-emergent; 14 days after application; read-out: Visual Growth Reduction (%) 14 Days After Application AMARE
`COc1c(N)nc(-c2ccc(I)c(F)c2)nc1C(=O)O` [Compound 37, 6-Amino-2-(3-fluoro-4-iodophenyl)-5-methoxypyrimidine-4-carboxylic acid] showed a pest or weed control at 70 g/ha of 85 to 94%.

Same assay, conditions: post-emergence, 336 h; AMARE: redroot pigweed (Amaranthus retroflexus); 140 g ai/ha; post-emergent; 14 days after application; read-out: Visual Growth Reduction (%) 14 Days After Application AMARE
Work on `COc1c(N)nc(-c2ccc(I)c(F)c2)nc1C(=O)O` [Compound 37, 6-Amino-2-(3-fluoro-4-iodophenyl)-5-methoxypyrimidine-4-carboxylic acid] yielded a pest or weed control at 140 g/ha of 85 to 94%.

Same assay, conditions: post-emergence, 336 h; BRSNN: oilseed-rape, canola (Brassica napus); 70 g ai/ha; post-emergent; 14 days after application; read-out: Visual Growth Reduction (%) 14 Days After Application BRSNN
Molecule `COc1c(N)nc(-c2ccc(I)c(F)c2)nc1C(=O)O` [Compound 37, 6-Amino-2-(3-fluoro-4-iodophenyl)-5-methoxypyrimidine-4-carboxylic acid] has a pest or weed control at 70 g/ha of 95 to 100%.

Same assay, conditions: post-emergence, 336 h; BRSNN: oilseed-rape, canola (Brassica napus); 140 g ai/ha; post-emergent; 14 days after application; read-out: Visual Growth Reduction (%) 14 Days After Application BRSNN
For `COc1c(N)nc(-c2ccc(I)c(F)c2)nc1C(=O)O` [Compound 37, 6-Amino-2-(3-fluoro-4-iodophenyl)-5-methoxypyrimidine-4-carboxylic acid], the pest or weed control at 140 g/ha was 95 to 100%.

Same assay, conditions: post-emergence, 336 h; CHEAL: lambsquarters (Chenopodium album); 70 g ai/ha; post-emergent; 14 days after application; read-out: Visual Growth Reduction (%) 14 Days After Application CHEAL
`COc1c(N)nc(-c2ccc(I)c(F)c2)nc1C(=O)O` [Compound 37, 6-Amino-2-(3-fluoro-4-iodophenyl)-5-methoxypyrimidine-4-carboxylic acid] was tested, and the pest or weed control at 70 g/ha was 95 to 100%.

Same assay, conditions: post-emergence, 336 h; CHEAL: lambsquarters (Chenopodium album); 140 g ai/ha; post-emergent; 14 days after application; read-out: Visual Growth Reduction (%) 14 Days After Application CHEAL
In the case of `COc1c(N)nc(-c2ccc(I)c(F)c2)nc1C(=O)O` [Compound 37, 6-Amino-2-(3-fluoro-4-iodophenyl)-5-methoxypyrimidine-4-carboxylic acid], the pest or weed control at 140 g/ha is reported as 95 to 100%.

Same assay, conditions: post-emergence, 336 h; EPHHL: wild poinsettia (Euphorbia heterophylla); 70 g ai/ha; post-emergent; 14 days after application; read-out: Visual Growth Reduction (%) 14 Days After Application EPHHL
Work on `COc1c(N)nc(-c2ccc(I)c(F)c2)nc1C(=O)O` [Compound 37, 6-Amino-2-(3-fluoro-4-iodophenyl)-5-methoxypyrimidine-4-carboxylic acid] yielded a pest or weed control at 70 g/ha of 95 to 100%.

Same assay, conditions: post-emergence, 336 h; EPHHL: wild poinsettia (Euphorbia heterophylla); 140 g ai/ha; post-emergent; 14 days after application; read-out: Visual Growth Reduction (%) 14 Days After Application EPHHL
Molecule `COc1c(N)nc(-c2ccc(I)c(F)c2)nc1C(=O)O` [Compound 37, 6-Amino-2-(3-fluoro-4-iodophenyl)-5-methoxypyrimidine-4-carboxylic acid] has a pest or weed control at 140 g/ha of 95 to 100%.

Same assay, conditions: post-emergence, 336 h; HELAN: sunflower (Helianthus annuus); 70 g ai/ha; post-emergent; 14 days after application; read-out: Visual Growth Reduction (%) 14 Days After Application HELAN
`COc1c(N)nc(-c2ccc(I)c(F)c2)nc1C(=O)O` [Compound 37, 6-Amino-2-(3-fluoro-4-iodophenyl)-5-methoxypyrimidine-4-carboxylic acid] gave a pest or weed control at 70 g/ha of 85 to 94%.

Same assay, conditions: post-emergence, 336 h; HELAN: sunflower (Helianthus annuus); 140 g ai/ha; post-emergent; 14 days after application; read-out: Visual Growth Reduction (%) 14 Days After Application HELAN
`COc1c(N)nc(-c2ccc(I)c(F)c2)nc1C(=O)O` [Compound 37, 6-Amino-2-(3-fluoro-4-iodophenyl)-5-methoxypyrimidine-4-carboxylic acid] showed a pest or weed control at 140 g/ha of 85 to 94%.

Same assay, conditions: post-emergence, 336 h; VIOTR: wild pansy (Viola tricolor); 70 g ai/ha; post-emergent; 14 days after application; read-out: Visual Growth Reduction (%) 14 Days After Application VIOTR
For `COc1c(N)nc(-c2ccc(I)c(F)c2)nc1C(=O)O` [Compound 37, 6-Amino-2-(3-fluoro-4-iodophenyl)-5-methoxypyrimidine-4-carboxylic acid], the pest or weed control at 70 g/ha was 95 to 100%.

Same assay, conditions: post-emergence, 336 h; VIOTR: wild pansy (Viola tricolor); 140 g ai/ha; post-emergent; 14 days after application; read-out: Visual Growth Reduction (%) 14 Days After Application VIOTR
For `COc1c(N)nc(-c2ccc(I)c(F)c2)nc1C(=O)O` [Compound 37, 6-Amino-2-(3-fluoro-4-iodophenyl)-5-methoxypyrimidine-4-carboxylic acid], the pest or weed control at 140 g/ha was 95 to 100%.

These molecules were tested on Key Grass and Sedge Weeds as well as Grass Crops (assay: Post-emergent Test II herbicidal activity (Table 6)). Conditions: Triticum aestivum, post-emergence, 336 h, TRZSS (wheat), application rate 70 g ai/ha, read-out: Visual Growth Reduction (%) 14 Days After Application, TRZSS.
Type: in vivo
Summary of the method: as §1
Molecule `COc1c(N)nc(-c2ccc(I)c(F)c2)nc1C(=O)O` [Compound 37, 6-Amino-2-(3-fluoro-4-iodophenyl)-5-methoxypyrimidine-4-carboxylic acid] has a pest or weed control at 70 g/ha of 45 to 59%.

Same assay, conditions: Triticum aestivum, post-emergence, 336 h, TRZSS (wheat), application rate 140 g ai/ha, read-out: Visual Growth Reduction (%) 14 Days After Application, TRZSS
With `COc1c(N)nc(-c2ccc(I)c(F)c2)nc1C(=O)O` [Compound 37, 6-Amino-2-(3-fluoro-4-iodophenyl)-5-methoxypyrimidine-4-carboxylic acid] the pest or weed control at 140 g/ha was 60 to 74%.

Same assay, conditions: post-emergence, 336 h, CYPES: yellow nutsedge (Cyperus esculentus), application rate 70 g ai/ha, read-out: Visual Growth Reduction (%) 14 Days After Application, CYPES
Molecule `COc1c(N)nc(-c2ccc(I)c(F)c2)nc1C(=O)O` [Compound 37, 6-Amino-2-(3-fluoro-4-iodophenyl)-5-methoxypyrimidine-4-carboxylic acid] has a pest or weed control at 70 g/ha of 0 to 29%.

Same assay, conditions: post-emergence, 336 h, CYPES: yellow nutsedge (Cyperus esculentus), application rate 140 g ai/ha, read-out: Visual Growth Reduction (%) 14 Days After Application, CYPES
Work on `COc1c(N)nc(-c2ccc(I)c(F)c2)nc1C(=O)O` [Compound 37, 6-Amino-2-(3-fluoro-4-iodophenyl)-5-methoxypyrimidine-4-carboxylic acid] yielded a pest or weed control at 140 g/ha of 0 to 29%.

Same assay, conditions: post-emergence, 336 h, DIGSA: crabgrass (Digitaria sanguinalis), application rate 70 g ai/ha, read-out: Visual Growth Reduction (%) 14 Days After Application, DIGSA
`COc1c(N)nc(-c2ccc(I)c(F)c2)nc1C(=O)O` [Compound 37, 6-Amino-2-(3-fluoro-4-iodophenyl)-5-methoxypyrimidine-4-carboxylic acid] gave a pest or weed control at 70 g/ha of 45 to 59%.

Same assay, conditions: post-emergence, 336 h, DIGSA: crabgrass (Digitaria sanguinalis), application rate 140 g ai/ha, read-out: Visual Growth Reduction (%) 14 Days After Application, DIGSA
With `COc1c(N)nc(-c2ccc(I)c(F)c2)nc1C(=O)O` [Compound 37, 6-Amino-2-(3-fluoro-4-iodophenyl)-5-methoxypyrimidine-4-carboxylic acid] the pest or weed control at 140 g/ha was 60 to 74%.

Same assay, conditions: post-emergence, 336 h, ECHCG: barnyardgrass (Echinochloa crus-galli), application rate 70 g ai/ha, read-out: Visual Growth Reduction (%) 14 Days After Application, ECHCG
`COc1c(N)nc(-c2ccc(I)c(F)c2)nc1C(=O)O` [Compound 37, 6-Amino-2-(3-fluoro-4-iodophenyl)-5-methoxypyrimidine-4-carboxylic acid] gave a pest or weed control at 70 g/ha of 75 to 84%.

Same assay, conditions: post-emergence, 336 h, ECHCG: barnyardgrass (Echinochloa crus-galli), application rate 140 g ai/ha, read-out: Visual Growth Reduction (%) 14 Days After Application, ECHCG
`COc1c(N)nc(-c2ccc(I)c(F)c2)nc1C(=O)O` [Compound 37, 6-Amino-2-(3-fluoro-4-iodophenyl)-5-methoxypyrimidine-4-carboxylic acid] was tested, and the pest or weed control at 140 g/ha was 75 to 84%.

Same assay, conditions: post-emergence, 336 h, ORYSA: rice (Oryza sativa), application rate 70 g ai/ha, read-out: Visual Growth Reduction (%) 14 Days After Application, ORYSA
Molecule `COc1c(N)nc(-c2ccc(I)c(F)c2)nc1C(=O)O` [Compound 37, 6-Amino-2-(3-fluoro-4-iodophenyl)-5-methoxypyrimidine-4-carboxylic acid] has a pest or weed control at 70 g/ha of 0 to 29%.

Same assay, conditions: post-emergence, 336 h, ORYSA: rice (Oryza sativa), application rate 140 g ai/ha, read-out: Visual Growth Reduction (%) 14 Days After Application, ORYSA
Molecule `COc1c(N)nc(-c2ccc(I)c(F)c2)nc1C(=O)O` [Compound 37, 6-Amino-2-(3-fluoro-4-iodophenyl)-5-methoxypyrimidine-4-carboxylic acid] has a pest or weed control at 140 g/ha of 0 to 29%.

Same assay, conditions: post-emergence, 336 h, SETFA: giant foxtail (Setaria faberi), application rate 70 g ai/ha, read-out: Visual Growth Reduction (%) 14 Days After Application, SETFA
For `COc1c(N)nc(-c2ccc(I)c(F)c2)nc1C(=O)O` [Compound 37, 6-Amino-2-(3-fluoro-4-iodophenyl)-5-methoxypyrimidine-4-carboxylic acid], the pest or weed control at 70 g/ha was 0 to 29%.

Same assay, conditions: post-emergence, 336 h, SETFA: giant foxtail (Setaria faberi), application rate 140 g ai/ha, read-out: Visual Growth Reduction (%) 14 Days After Application, SETFA
Molecule `COc1c(N)nc(-c2ccc(I)c(F)c2)nc1C(=O)O` [Compound 37, 6-Amino-2-(3-fluoro-4-iodophenyl)-5-methoxypyrimidine-4-carboxylic acid] has a pest or weed control at 140 g/ha of 60 to 74%.

Same assay, conditions: post-emergence, 336 h, SORVU: grain sorghum (Sorghum vulgare), application rate 70 g ai/ha, read-out: Visual Growth Reduction (%) 14 Days After Application, SORVU
In the case of `COc1c(N)nc(-c2ccc(I)c(F)c2)nc1C(=O)O` [Compound 37, 6-Amino-2-(3-fluoro-4-iodophenyl)-5-methoxypyrimidine-4-carboxylic acid], the pest or weed control at 70 g/ha is reported as 75 to 84%.

Same assay, conditions: post-emergence, 336 h, SORVU: grain sorghum (Sorghum vulgare), application rate 140 g ai/ha, read-out: Visual Growth Reduction (%) 14 Days After Application, SORVU
Molecule `COc1c(N)nc(-c2ccc(I)c(F)c2)nc1C(=O)O` [Compound 37, 6-Amino-2-(3-fluoro-4-iodophenyl)-5-methoxypyrimidine-4-carboxylic acid] has a pest or weed control at 140 g/ha of 85 to 94%.

Same assay, conditions: post-emergence, 336 h, ZEAMX: maize, corn (Zea mays), application rate 70 g ai/ha, read-out: Visual Growth Reduction (%) 14 Days After Application, ZEAMX
For `COc1c(N)nc(-c2ccc(I)c(F)c2)nc1C(=O)O` [Compound 37, 6-Amino-2-(3-fluoro-4-iodophenyl)-5-methoxypyrimidine-4-carboxylic acid], the pest or weed control at 70 g/ha was 0 to 29%.

Same assay, conditions: post-emergence, 336 h, ZEAMX: maize, corn (Zea mays), application rate 140 g ai/ha, read-out: Visual Growth Reduction (%) 14 Days After Application, ZEAMX
For `COc1c(N)nc(-c2ccc(I)c(F)c2)nc1C(=O)O` [Compound 37, 6-Amino-2-(3-fluoro-4-iodophenyl)-5-methoxypyrimidine-4-carboxylic acid], the pest or weed control at 140 g/ha was 45 to 59%.
